Here are results for 1 compound from publication PMC10579715 (Plant Biotechnology Journal, 2023).

In this test the test system is LmUGT73P1. Put plainly: LC-QTOF-MS/MS rhamnosyltransferase assay, Michaelis-Menten plot. It is filed as biochemical, Lonicera macranthoides. Particulars: 10 mM UDP-Rha, 50 mM Tris-HCl pH 7.5, 37 °C, 20 min.

Structures are written as SMILES.

The Km is the concentration of substrate that gives half-maximal velocity. For `CC1(C)CC[C@]2(C(=O)O)CC[C@]3(C)C(=CC[C@@H]4[C@@]5(C)CC[C@H](O[C@@H]6OC[C@H](O)[C@H](O)[C@H]6O)[C@@](C)(CO)[C@@H]5CC[C@]43C)[C@@H]2C1` [cauloside A], the Km is 33 µM.
